This is an account of results in paper PMC5473904, “Epigenetic and antitumor effects of platinum(IV)-octanoato conjugates” (Scientific Reports, 2017).

SMILES strings stand for the structures.

Series [1] has as its system DNA methylation in HCT-116 cells. As to the kind of experiment: DNA methylation analysis (Imprint methylated DNA quantification kit). It counts as cell-based, human. As to conditions: HCT-116, 1 µM. The protocol:
Human colon adenocarcinoma cells HCT-116 were chosen as the model cellular system suitable for DNA methylation analysis because: (i) this human colorectal cancer cell line has been used as a prototypic model for analyses of the genetic basis of cancer, and the role of epigenetic changes in tumorigenesis; (ii) they have a propensity to both global DNA hypomethylation and to silence genes through promoter focal hypermethylation, [21]. HCT-116 cells were treated with the compounds at the concentrations indicated in Fig. 4A for 24 or 72 h and DNA was isolated for the complete methylation analysis as described in the experimental section. Decitabine (5-aza-2′-deoxycytidine), a hypomethylating agent which hypomethylates DNA by inhibiting DNMT, was used in these experiments as a […]. The IC50 values found for this agent in HCT-116 cells (the drug-treatment period was 72 h) was (7.5 ± 0.3) µM (Table 1).
Figure 4 Analysis of DNA methylation. (A) DNA was isolated from HCT-116 cells after the exposure to the agents at the concentrations indicated in the graph for 24 or 72 h. The levels of DNA methylation in the control was taken as 100%. The bars represent mean values from three independent experiments each performed in octuplicate. The error bars are the SDs. (B) DNMT activity in colon carcinoma cells HCT-116 treated for 24 h with the compounds tested in the present work. The DNMT activity in the control, untreated cells was taken as 100%. Error bars are the SDs and the stars at the top of bars denote a significant difference from the control with (*p < 0.05; **p < […]), calculated using […] student’s t-test. The bars represent mean values from three independent experiments, each performed in quadruplicate.
Human colon carcinoma cells (HCT-116) were seeded at the density 1.5 × 10^6 cells/dish. […] The DNA content in each sample was determined by UV spectrophotometry. DNA (200 ng) from the samples was loaded to the Imprint methylated DNA quantification kit (Sigma-Aldrich, USA). The level of methylated DNA was proportional to the absorbance measured at 450 nm.

Series [2] relates to HCT-116 human colorectal carcinoma cells. Description: MTT cytotoxicity, 72 h. Format: cell-based. As to conditions: MTT, 72 h, platinum complexes and decitabine. The protocol: (§1) Cytotoxic activity of the compounds tested in the present work was screened on the panel of malignant and nonmalignant cell lines using the colorimetric MTT assay and 72 h of drug incubation period.
(§2) Cell death was evaluated using a system based on the tetrazolium compound MTT [3-(4,5-dimethyl-2-thiazolyl)-2,5-diphenyl-2H-tetrazolium bromide]. The cells were seeded in 96-well tissue culture plates at a density of 10^4 A2780cisR, LNCaP, HSF cells/well, 3 × 10^3 CHO-K1 or 4 × 10^3 MCF7, HCT-116 and MRC5 pd30 cells/well in 100 μL of medium. After overnight incubation (16 h), the cells were treated with the compounds in a final volume of 200 μL/well. After additional 72 h, 10 μL of a freshly diluted MTT solution (2.5 mg mL^−1) was added to each well, and the plate was incubated at 37 °C in a humidified 5% CO2 atmosphere for 4 h. At the end of the incubation period, the medium was removed, and the formazan product was dissolved in 100 μL of DMSO. The cell viability was evaluated by measurement of the absorbance at 570 nm, using an Absorbance Reader SUNRISE TECAN SCHOELLER. IC50 values were calculated from curves constructed by plotting cell survival (%) versus drug concentration (μM). All experiments were made in triplicate. The reading values were converted to the percentage of control (% cell survival). Cytotoxic effects were expressed as IC50.

The subject of series [3] is HSF human primary skin fibroblasts. Description: MTT cytotoxicity, 72 h. It counts as cell-based. Particulars: platinum complexes. The method, then:
as §1, §2

The subject of series [4] is MCF-7 human breast cancer cells. Description: MTT cytotoxicity, 72 h. Format: cell-based. Particulars: platinum complexes. The method, then:
as §1, §2

Series [5] deals with LNCaP human prostate adenocarcinoma cells. As to the kind of experiment: MTT cytotoxicity, 72 h. It counts as cell-based. As to conditions: platinum complexes. The protocol:
as §1, §2

Series [6] relates to MRC-5 (PD30) human fetal lung fibroblasts. Description: MTT cytotoxicity, 72 h. It counts as cell-based. Particulars: platinum complexes. The protocol: as §1, §2
For series [7], the system named is A2780cisR human ovarian carcinoma cells. As to the kind of experiment: MTT cytotoxicity, 72 h. Format: cell-based. The protocol: as §1, §2
The test system of series [8] is CHO-K1 Chinese hamster ovary cells. Description: MTT cytotoxicity, 72 h. Particulars: platinum complexes. It counts as cell-based. The method, then:
as §1, §2

Series [9] relates to HCT-116 cells. Description: Cellular platinum accumulation/distribution by ICP-MS. It counts as cell-based, human. Particulars: HCT-116, 24 h exposure, 0.35 µM. The method, then: (§3) Cellular concentrations of platinum were determined by inductively coupled plasma mass spectrometry (ICP-MS) after 24 h of exposure to the complexes at the concentration of 0.35 µM.
(§4) Cellular uptake studies were also carried out to measure the accumulation of platinum species in cytosol and nucleus. […] The platinum levels in each pool were measured by ICP-MS. The extent of accumulation of both OA conjugated Pt(IV) prodrugs into the cytosol and nucleus fractions was markedly higher than that of cisplatin or Pt(IV)diAc.
(§5) The cells were seeded in 150 cm^2 culture flasks at a density 1 × 10^7 cells/flask (67 000 cells/cm^2). After 48-h incubation, the cells were treated with the compounds (0.35 μM) for 24 h. The attached cells were washed twice with PBS (4 °C). Seventy-five percent of cells were used for analysis of platinum bound to DNA, remaining 25% were used for estimations of cellular accumulation of platinum. Cell pellets were digested by a high-pressure microwave digestion system (MARS5, CEM) with HCl to give a fully homogenized solution, and final platinum content was determined by ICP-MS. The analysis with the aid of ICP-MS was performed using Agilent 7500 (Agilent, Japan) or Thermo Optek X Series.
(§6) A2780 cells were seeded in 100 mm tissue culture dishes (3 × 10^6 cells) and grown for 48 h to 80–90% confluence. Cells were harvested after 24 h of treatment. Concretely, the dishes were washed two times with ice-cold PBS and the cells scraped into tubes and centrifuged for 10 min at 0 °C (200 g). The pellets were resuspended in the lysis buffer [Tris·HCl (10 mM, pH 8.0), KCl (60 mM), EDTA (1.2 mM), DTT (1 mM), phenylmethanesulfonyl fluoride (PMSF, 0.1 mM), NP-40 (0.04%)] for 10 min on ice and centrifuged for 4 min at 0 °C (800 g). Cytosolic fraction was separated for platinum ICP-MS analysis, and protein concentration was determined by Bradford assay. The pellets were rinsed with the above lysis buffer without PMSF and NP-40 and centrifuged for another 4 min at 0 °C (300 g). The pellets were resuspended in 50 µL nuclear extraction buffer [Tris·HCl (20 mM, pH 8.0), NaCl (420 mM), MgCl2 (0.7 mM), EDTA (0.25 mM), glycerol (25%)] and incubated for 30 min at 4 °C, continuously mixed on end-over-end roller, and then centrifuged for 15 min at 0 °C (13000 g). Protein concentration in nuclear extracts was determined by the Bradford assay, and stored at −80 °C until analysis.

Series [10] relates to A2780 cells. The series is described as above. Particulars: 0.35 µM. It counts as cell-based, human. The protocol: as §3, §4, §5, §6
The test system of series [11] is HCT-116 cells. The series is described as above. Format: cell-based, human. As to conditions: HCT-116, 24 h, 0.35 µM.
Series [12] has as its system PNT1a. Description: MTT cytotoxicity, 72 h. Format: cell-based. As to conditions: platinum complexes.
In series [13] the test system is A2780 human ovarian carcinoma cells. As to the kind of experiment: MTT cytotoxicity, 72 h. Particulars: MTT, 72 h, platinum complexes. It counts as cell-based.
For series [14], the system named is DNA from A2780 cells. As to the kind of experiment: Platinum content on DNA isolated from treated cells (ICP-MS). It counts as cell-based, human. Particulars: A2780, 24 h, 0.35 µM. The protocol:
(§7) As for antitumor cisplatin and its direct derivatives, DNA is believed to be the target also for Pt(IV) prodrugs examined in the present work.
(§8) The cells were seeded in 150 cm^2 culture flasks at a density 1 × 10^7 cells/flask (67 000 cells/cm^2). After 48-h incubation, the cells were treated with the compounds (0.35 μM) for 24 h. The attached cells were washed twice with PBS (4 °C). As mentioned in the preceding paragraph, 75% of cells were used for analysis of platinum bound to DNA, remaining 25% were used for estimations of cellular accumulation of platinum. Cells were then lysed in DNAzol (DNAzol® genomic DNA isolation reagent, MRC) supplemented with RNase A (100 μg mL^−1). The genomic DNA was precipitated from the lysate with ethanol, dried and resuspended in water. The DNA content in each sample was determined by UV spectrophotometry. The DNA samples were digested in the presence of hydrochloric acid (11 M) using high-pressure microwave mineralization system (MARS5, CEM). The platinum content was determined by ICP-MS. Experiments were performed in triplicate and the values are the means ± SD.

For series [15], the system named is DNA from HCT-116 cells. Described as above. It counts as cell-based, human. Particulars: HCT-116, 24 h, 0.35 µM. The method, then: as §7, §8
Details of series [16]: method as in PMID 25888926. Particulars: valproato complexes; cited from earlier work.
Where [17] appears, read: rough estimate from Tables 2 and 3.

Take `Nc1ncn([C@H]2C[C@H](O)[C@@H](CO)O2)c(=O)n1` [Decitabine, 5-aza-2′-deoxycytidine, reference compound]: the “Change of DNA methylation” value in [1] is reported as “considerably lowered level of DNA methylation”. Besides, the half-maximal inhibitory concentration (IC50) – broadly, the point on the concentration scale where inhibition reaches its midpoint – in series [2] (Homo sapiens, HCT-116) was 7500 ± 300 nM.
For the compound `CCCCCCCC(=O)[O][Pt]([NH2])([NH2])([Cl])([Cl])[O]C(C)=O` [Pt(IV)AcOA, cis, cis, trans-[Pt(IV)(NH3)2Cl2AcOA]], the half-maximal inhibitory concentration (IC50) is 957 ± 19 nM in series [3]; 500 ± 40 nM in [4]; 270 ± 100 nM in series [5]; 930 ± 20 nM in [2]; 409 ± 215 nM in series [6]; 370 ± 60 nM in [7] (MTT, 72 h, platinum complexes). Further, the 50% inhibitory concentration (IC50) in series [8] was determined as 1100 ± 200 nM; in series [12], 150 ± 3 nM; in series [13], 350 ± 50 nM. In addition, the “RF, resistance factor” value in series [7] (IC50 (resistant, A2780cisR)/IC50 (sensitive, A2780)) is given as 1.1. Besides, the “Total cellular platinum accumulation” value is recorded as 6.0 ± 0.9 ng Pt/10^6 cells in series [9] and 4.0 ± 0.9 ng Pt/10^6 cells in series [10] (A2780, 24 h exposure). The Platinum in cytosol is recorded as 28 ± 4 pg Pt/µg protein in series [10] (A2780, 24 h) and 48 ± 2 pg Pt/µg protein in series [11]. The Platinum in nucleus in [10] (A2780, 24 h) is 27 ± 4 pg Pt/µg protein; in [11], 55 ± 7 pg Pt/µg protein. Further, the “Platinum content on DNA” value in [14] is 8.0 ± 1.4 pg Pt/µg DNA; in [15], 19.8 ± 3.6 pg Pt/µg DNA. The “Platinum on DNA, % from the total intracellular Pt amount” value in series [14] (setting [17]) is given as 5.0%; in series [15] (setting [17]) it was 4.8%.
Take `CCCC(CCC)C(=O)[O][Pt]([NH2])([NH2])([Cl])([Cl])[O]C(C)=O` [Pt(IV)AcVPA, reference compound]: the logP (commonly the decadic logarithm of the partition coefficient of the neutral form, usually between octanol and water) in series [16] is given as 0.17.
